Experimental data reported in ChEMBL document CHEMBL3297705, “Discovery of 5,6,7,8-tetrahydropyrido[3,4-d]pyrimidine inhibitors of Erk2” (Bioorg Med Chem Lett, 2014).

Legend:
[1] = Cmax in NCR nude mouse at 30 mg/kg, po; assay type: ADME, organism-based; set-up: dose 30 mg/kg, route oral; conditions: in vivo
[2] = Cmax in NCR nude mouse at 150 mg/kg, po; assay type: ADME, organism-based; set-up: dose 150 mg/kg, route oral; conditions: in vivo
[3] = Clearance in cynomolgus monkey at 1 mg/kg, iv; assay type: ADME, organism-based, Macaca fascicularis; set-up: dose 1 mg/kg, route intravenous; conditions: in vivo
[4] = Cmax in beagle dog at 2 mg/kg, po; assay type: ADME, organism-based, Canis lupus familiaris; set-up: dose 2 mg/kg, route oral; conditions: in vivo
[5] = Half life in beagle dog at 2 mg/kg, po; assay type: ADME, organism-based, Canis lupus familiaris; set-up: dose 2 mg/kg, route oral; conditions: in vivo
[6] = Cmax in cynomolgus monkey at 3 mg/kg, po; assay type: ADME, organism-based, Macaca fascicularis; set-up: dose 3 mg/kg, route oral; conditions: in vivo
[7] = Tmax in NCR nude mouse at 100 mg/kg, po; assay type: ADME, organism-based; set-up: dose 100 mg/kg, route oral; conditions: in vivo
[8] = Clearance in CD-1 mouse at 0.5 mg/kg, iv; assay type: ADME, organism-based; set-up: dose 0.5 mg/kg, route intravenous; conditions: in vivo
A-375 = experiment: Antiproliferative activity against human A375 cells expressing B-Raf V600E mutant after 72 hrs by Cell-Titre Blue assay; assay type: functional, cell-based; conditions: A-375, 72 h
[9] = AUC (0 to infinity) in NCR nude mouse at 100 mg/kg, po; assay type: ADME, organism-based; set-up: time infinity, dose 100 mg/kg, route oral; conditions: plasma
[10] = Half life in cynomolgus monkey at 3 mg/kg, po; assay type: ADME, organism-based, Macaca fascicularis; set-up: dose 3 mg/kg, route oral; conditions: in vivo
[11] = Clearance in Sprague-Dawley rat at 1 mg/kg, iv; assay type: ADME, organism-based; set-up: dose 1 mg/kg, route intravenous; conditions: in vivo
[12] = Oral bioavailability in NCR nude mouse at 150 mg/kg; assay type: ADME, organism-based; conditions: in vivo
[13] = Half life in NCR nude mouse at 150 mg/kg, po; assay type: ADME, organism-based; set-up: dose 150 mg/kg, route oral; conditions: in vivo
[14] = Tmax in NCR nude mouse at 150 mg/kg, po; assay type: ADME, organism-based; set-up: dose 150 mg/kg, route oral; conditions: in vivo
[15] = Clearance in NCR nude mouse at 1 mg/kg, iv; assay type: ADME, organism-based; set-up: dose 1 mg/kg, route intravenous; conditions: in vivo
[16] = Half life in NCR nude mouse at 100 mg/kg, po; assay type: ADME, organism-based; set-up: dose 100 mg/kg, route oral; conditions: in vivo
[17] = Oral bioavailability in Sprague-Dawley rat at 5 mg/kg; assay type: ADME, organism-based; conditions: in vivo
[18] = Oral bioavailability in NCR nude mouse at 100 mg/kg; assay type: ADME, organism-based; conditions: in vivo
[19] = Toxicity in po dosed nude mouse xenografted with human HCT116 cells administered bid; assay type: organism-based, HCT-116; conditions: in vivo
[20] = Tmax in beagle dog at 2 mg/kg, po; assay type: ADME, organism-based, Canis lupus familiaris; set-up: dose 2 mg/kg, route oral; conditions: in vivo
Mus musculus [21] = experiment: Toxicity in nude mouse xenografted with human HCT116 cells assessed as body weight loss at 150 mg/kg, po bid relative to vehicle-treated control; assay type: organism-based, HCT-116; set-up: dose 150 mg/kg, route oral; conditions: in vivo
[22] = Clearance in beagle dog at 1 mg/kg, iv; assay type: ADME, organism-based, Canis lupus familiaris; set-up: dose 1 mg/kg, route intravenous; conditions: in vivo
[23] = AUC (0 to infinity) in Sprague-Dawley rat at 5 mg/kg, po; assay type: ADME, organism-based; set-up: time infinity, dose 5 mg/kg, route oral; conditions: plasma
[24] = Cmax in NCR nude mouse at 100 mg/kg, po; assay type: ADME, organism-based; set-up: dose 100 mg/kg, route oral; conditions: in vivo
[25] = Oral bioavailability in NCR nude mouse at 30 mg/kg; assay type: ADME, organism-based; conditions: in vivo
[26] = AUC (0 to infinity) in NCR nude mouse at 150 mg/kg, po; assay type: ADME, organism-based; set-up: time infinity, dose 150 mg/kg, route oral; conditions: plasma
Mus musculus [27] = experiment: In vivo inhibition of ERK2 in nude mouse xenografted with human HCT116 cells assessed as pRSK knockdown at 150 mg/kg, po qd after 8 hrs relative to vehicle-treated control; assay type: functional; conditions: HCT-116, 8 h
[28] = Oral bioavailability in CD-1 mouse at 2 mg/kg; assay type: ADME, organism-based; conditions: in vivo
[29] = Antiproliferative activity against human HCT116 cells expressing K-Ras […] mutant after 72 hrs by Cell-Titre Blue assay; assay type: functional, cell-based; conditions: HCT-116, 72 h
Mus musculus [30] = experiment: In vivo inhibition of ERK2 in nude mouse xenografted with human HCT116 cells assessed as pRSK knockdown at 75 mg/kg, po qd after 1 hr relative to vehicle-treated control; assay type: functional; conditions: HCT-116, 1 h
Mus musculus [31] = experiment: In vivo inhibition of ERK2 in nude mouse xenografted with human HCT116 cells assessed as pRSK knockdown at 75 mg/kg, po qd after 8 hrs relative to vehicle-treated control; assay type: functional; conditions: HCT-116, 8 h
[32] = Tmax in Sprague-Dawley rat at 5 mg/kg, po; assay type: ADME, organism-based; set-up: dose 5 mg/kg, route oral; conditions: in vivo
[33] = AUC (0 to infinity) in cynomolgus monkey at 3 mg/kg, po; assay type: ADME, organism-based, Macaca fascicularis; set-up: dose 3 mg/kg, route oral, time infinity; conditions: plasma
[34] = Tmax in cynomolgus monkey at 3 mg/kg, po; assay type: ADME, organism-based, Macaca fascicularis; set-up: dose 3 mg/kg, route oral; conditions: in vivo
[35] = AUC (0 to infinity) in NCR nude mouse at 30 mg/kg, po; assay type: ADME, organism-based; set-up: time infinity, dose 30 mg/kg, route oral; conditions: plasma
[36] = AUC (0 to infinity) in beagle dog at 2 mg/kg, po; assay type: ADME, organism-based, Canis lupus familiaris; set-up: dose 2 mg/kg, route oral, time infinity; conditions: plasma
[37] = Oral bioavailability in cynomolgus monkey at 3 mg/kg; assay type: ADME, organism-based, Macaca fascicularis; conditions: in vivo
[38] = Half life in Sprague-Dawley rat at 5 mg/kg, po; assay type: ADME, organism-based; set-up: dose 5 mg/kg, route oral; conditions: in vivo
[39] = Tmax in NCR nude mouse at 30 mg/kg, po; assay type: ADME, organism-based; set-up: dose 30 mg/kg, route oral; conditions: in vivo
[40] = Half life in NCR nude mouse at 30 mg/kg, po; assay type: ADME, organism-based; set-up: dose 30 mg/kg, route oral; conditions: in vivo
[41] = Cmax in Sprague-Dawley rat at 5 mg/kg, po; assay type: ADME, organism-based; set-up: dose 5 mg/kg, route oral; conditions: in vivo
[42] = Oral bioavailability in beagle dog at 2 mg/kg; assay type: ADME, organism-based, Canis lupus familiaris; conditions: in vivo

Question: With `O=C(N[C@H](CO)c1ccc(Cl)c(F)c1)N1CCc2cnc(NC3CCOCC3)nc2C1` as the compound, how does the Cmax [1] read?
Answer: 3120 nM

Question: What about the Cmax [2] of the same compound?
Answer: 13900 nM

Question: And the clearance [3]?
Answer: 33 mL/min/kg

Question: What about the Cmax [4] of the same compound?
Answer: 590 nM

Question: What about the half-life [5] of the same compound?
Answer: 36 min

Question: And the Cmax [6]?
Answer: 160 nM

Question: What about the Tmax [7] of the same compound?
Answer: 15 min

Question: What about the clearance [8] of the same compound?
Answer: 33 mL/min/kg

Question: What about the EC50 (A-375) of the same compound?
Answer: 390 nM

Question: What about the AUC(0-inf) [9] of the same compound?
Answer: 30 µM·h

Question: What about the half-life [10] of the same compound?
Answer: 312 min

Question: And the clearance [11]?
Answer: 104 mL/min/kg

Question: What about the bioavailability [12] of the same compound?
Answer: 64%

Question: What about the half-life [13] of the same compound?
Answer: 162 min

Question: And the Tmax [14]?
Answer: 15 min

Question: What about the clearance [15] of the same compound?
Answer: 134 mL/min/kg

Question: And the half-life [16]?
Answer: 450 min

Question: And the bioavailability [17]?
Answer: 11%

Question: What about the bioavailability [18] of the same compound?
Answer: 73%

Question: What about the MTD [19] of the same compound?
Answer: 50 mg/kg

Question: And the Tmax [20]?
Answer: 25.2 min

Question: What about the Activity (Mus musculus [21]) of the same compound?
Answer: Non-toxic

Question: What about the clearance [22] of the same compound?
Answer: 32 mL/min/kg

Question: And the AUC(0-inf) [23]?
Answer: 0.2 µM·h

Question: What about the Cmax [24] of the same compound?
Answer: 9820 nM

Question: What about the bioavailability [25] of the same compound?
Answer: 58%

Question: And the AUC(0-inf) [26]?
Answer: 26.7 µM·h

Question: And the inhibition in vivo at 150 mg/kg (Mus musculus [27])?
Answer: 55%

Question: What about the bioavailability [28] of the same compound?
Answer: 29%

Question: And the EC50 [29]?
Answer: 740 nM

Question: And the inhibition in vivo at 75 mg/kg (Mus musculus [30])?
Answer: 75%

Question: What about the inhibition in vivo at 75 mg/kg (Mus musculus [31]) of the same compound?
Answer: 20%

Question: What about the Tmax [32] of the same compound?
Answer: 19.8 min

Question: And the AUC(0-inf) [33]?
Answer: 0.65 µM·h

Question: What about the Tmax [34] of the same compound?
Answer: 79.8 min

Question: And the AUC(0-inf) [35]?
Answer: 4.81 µM·h

Question: What about the AUC(0-inf) [36] of the same compound?
Answer: 0.61 µM·h

Question: What about the bioavailability [37] of the same compound?
Answer: 19%

Question: And the half-life [38]?
Answer: 102 min

Question: And the Tmax [39]?
Answer: 30 min

Question: What about the half-life [40] of the same compound?
Answer: 144 min

Question: And the Cmax [41]?
Answer: 90 nM

Question: And the bioavailability [42]?
Answer: 26%
